The source made the active and inactive calls.
Assays:
Protein Rev = Protein Rev (Human immunodeficiency virus type 1 group M subtype B (isolate HXB2)(HIV-1), UniProt P04618); test: inhibitors of Rev binding to RRE RNA, dose response, biochemical, fluorescence polarization, HIV-1 (AID 434976); design: species or system Human immunodeficiency virus 1
[1] = biological target: Female germline-specific tumor suppressor gld-1 (Caenorhabditis elegans, UniProt Q17339); test: inhibitors of GLD-1 binding to TGE RNA, dose response, biochemical, fluorescence polarization, C. elegans (AID 2802);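 further: fluorescence polarization of labeled TGE RNA bound by purified gld-1 protein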
Insulin-degrading enzyme [2] = biological target: T1, Insulin-degrading enzyme (Homo sapiens, UniProt P14735); test: activators of recombinant IDE enzyme, dose response, counter-screen for IDE activator project, biochemical, fluorescence polarization (AID 588681)
T1 sequence (P14735 whole entry): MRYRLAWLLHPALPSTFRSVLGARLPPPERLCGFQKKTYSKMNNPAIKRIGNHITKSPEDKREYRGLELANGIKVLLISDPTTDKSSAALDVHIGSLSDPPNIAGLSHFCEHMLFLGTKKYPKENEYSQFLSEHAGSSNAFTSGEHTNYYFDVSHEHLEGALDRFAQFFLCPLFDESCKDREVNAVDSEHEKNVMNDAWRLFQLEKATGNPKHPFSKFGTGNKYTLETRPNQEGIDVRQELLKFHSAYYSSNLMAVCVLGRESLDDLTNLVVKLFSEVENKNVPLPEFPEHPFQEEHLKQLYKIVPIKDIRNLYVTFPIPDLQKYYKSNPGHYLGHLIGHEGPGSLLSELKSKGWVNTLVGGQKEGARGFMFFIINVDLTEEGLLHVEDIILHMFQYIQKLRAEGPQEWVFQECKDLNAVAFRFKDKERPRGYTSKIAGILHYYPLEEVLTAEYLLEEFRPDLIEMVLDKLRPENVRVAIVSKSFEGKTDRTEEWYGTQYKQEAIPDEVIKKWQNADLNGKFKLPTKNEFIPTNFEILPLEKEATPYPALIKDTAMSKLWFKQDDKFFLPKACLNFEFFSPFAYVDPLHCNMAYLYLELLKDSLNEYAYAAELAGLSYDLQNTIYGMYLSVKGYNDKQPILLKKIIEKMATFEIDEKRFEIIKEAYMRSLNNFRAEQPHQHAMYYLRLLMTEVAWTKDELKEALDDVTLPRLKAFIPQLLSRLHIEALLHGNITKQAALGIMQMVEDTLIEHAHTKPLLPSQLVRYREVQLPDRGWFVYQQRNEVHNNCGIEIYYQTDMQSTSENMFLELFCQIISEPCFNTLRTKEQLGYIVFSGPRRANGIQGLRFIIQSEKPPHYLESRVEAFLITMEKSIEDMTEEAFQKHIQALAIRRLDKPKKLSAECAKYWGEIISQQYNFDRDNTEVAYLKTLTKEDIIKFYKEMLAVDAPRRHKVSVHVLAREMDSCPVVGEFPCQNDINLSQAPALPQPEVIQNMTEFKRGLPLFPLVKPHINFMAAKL

Insulin-degrading enzyme [3] = biological target: T1, Insulin-degrading enzyme; test: activators of endogenous IDE in HEK cells, dose response, cell-based, fluorescence polarization (AID 588439); type: functional
HEK293 [4] = test: HEK cell cytotoxicity by LDH release, dose response, cytotoxicity control for IDE activator project, fluorescence, HEK cells (AID 588440); type: functional, cell-based; conditions: Homo sapiens;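 further: cytotoxicity by LDH release measuring loss of membrane integrity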
HEK293 [5] = test: optical interference in Abeta FP readout, dose response, artefact control for IDE activator project, biochemical, fluorescence polarization (AID 588442); type: functional, cell-based; conditions: Homo sapiens
Wee1-like protein kinase = Wee1-like protein kinase (Homo sapiens, UniProt P30291); test: G2/M cell cycle arrest in HeLa, late-stage follow-up, mechanism study for Wee1 degradation inhibitor project, FACS, panel member Wee1 Degradation (AID 2088)
[6] = biological target: G2/mitotic-specific cyclin-B1 (Homo sapiens, UniProt P14635); test: G2/M cell cycle arrest in HeLa, late-stage follow-up, mechanism study for Wee1 degradation inhibitor project, FACS, panel member Cyclin B Degradation (AID 2088)
[7] = HEp-2 cell cytotoxicity, dose response, cytotoxicity control for RSV inhibitor project, HTS (AID 2410); type: functional; conditions: human respiratory syncytial virus
Trypsin = Trypsin (Sus scrofa, UniProt P00761); test: porcine trypsin inhibitors, dose response, selectivity assay for Rce1 protease inhibitor project, biochemical, quenched peptide fluorescence, cherry-pick (AID 488789)
cells [8] = type: functional, cell-based
[9] = biological target: T2, Trace amine-associated receptor 1 (Homo sapiens, UniProt Q96RJ0); test: Fluorescence-based cell-based high throughput dose response assay to identify agonists of the human trace amine associated receptor 1 (TAAR1).; type: functional
T2 sequence (Q96RJ0 whole entry): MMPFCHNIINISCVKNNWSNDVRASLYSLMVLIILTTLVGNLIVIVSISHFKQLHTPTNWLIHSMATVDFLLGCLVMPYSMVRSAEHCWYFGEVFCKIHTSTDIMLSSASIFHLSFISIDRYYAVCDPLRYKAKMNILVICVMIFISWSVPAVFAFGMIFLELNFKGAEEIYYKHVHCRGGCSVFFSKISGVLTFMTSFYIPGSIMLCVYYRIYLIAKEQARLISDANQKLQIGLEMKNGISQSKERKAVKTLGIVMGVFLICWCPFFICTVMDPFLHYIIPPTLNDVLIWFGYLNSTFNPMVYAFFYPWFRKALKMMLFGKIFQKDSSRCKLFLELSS

[10] = biological target: T2, Trace amine-associated receptor 1; test: Counterscreen for agonists of the human trace amine associated receptor 1 (hTAAR1): Fluorescence-based cell-based high throughput dose response assay to identify hTAAR1 agonist that also desensitize TAAR1 receptor response.; type: functional
cells [11] = type: functional, cell-based; remark: listed apart in the source
[12] = biological target: Glyceraldehyde-3-phosphate dehydrogenase (Homo sapiens, UniProt P04406)
[13] = biological target: Tyrosine-protein phosphatase non-receptor type 12 (Homo sapiens, UniProt Q05209); test: SAR Selectivity Analysis of small molecule inhibitors of PEST using pCAP in a fluorescence assay. [Related pubchem assays (depositor defined):AID1779, AID1784, AID2135]; type: functional
[14] = biological target: T3, Tyrosine-protein phosphatase non-receptor type 22 (Homo sapiens, UniProt Q9Y2R2); test: SAR LYP1 Fluorescent Assay using OMFP substrate for In Vitro dose response studies - Set 3. [Related pubchem assays (depositor defined):AID1779, AID1784, AID2140, AID2686]; type: functional
T3 sequence (Q9Y2R2 whole entry): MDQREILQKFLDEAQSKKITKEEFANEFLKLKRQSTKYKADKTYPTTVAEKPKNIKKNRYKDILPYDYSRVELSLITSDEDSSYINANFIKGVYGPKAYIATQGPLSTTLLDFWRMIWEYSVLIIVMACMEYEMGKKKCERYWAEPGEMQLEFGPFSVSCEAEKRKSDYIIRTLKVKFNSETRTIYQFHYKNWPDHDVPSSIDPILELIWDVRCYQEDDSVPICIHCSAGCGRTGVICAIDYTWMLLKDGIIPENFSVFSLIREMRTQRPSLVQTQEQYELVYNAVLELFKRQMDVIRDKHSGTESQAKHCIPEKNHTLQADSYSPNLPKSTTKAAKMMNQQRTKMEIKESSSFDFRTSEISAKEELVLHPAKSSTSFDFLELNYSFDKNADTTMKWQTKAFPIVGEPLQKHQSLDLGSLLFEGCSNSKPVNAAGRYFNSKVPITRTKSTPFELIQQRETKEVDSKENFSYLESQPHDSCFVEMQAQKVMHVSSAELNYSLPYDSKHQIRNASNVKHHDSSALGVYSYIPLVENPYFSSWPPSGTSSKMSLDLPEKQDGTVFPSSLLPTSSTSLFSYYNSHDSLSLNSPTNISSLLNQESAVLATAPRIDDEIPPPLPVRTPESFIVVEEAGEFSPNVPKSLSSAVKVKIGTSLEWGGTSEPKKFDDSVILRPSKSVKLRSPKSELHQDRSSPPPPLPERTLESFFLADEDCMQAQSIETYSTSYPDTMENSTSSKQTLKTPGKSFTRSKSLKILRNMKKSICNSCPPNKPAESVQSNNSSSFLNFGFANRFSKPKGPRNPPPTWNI

[15] = biological target: T3, Tyrosine-protein phosphatase non-receptor type 22; test: LYP (PTPN22) phosphatase inhibitor potency, SAR follow-up, biochemical, pCAP fluorogenic substrate, fluorescence, set 3 (AID 449727); type: functional
[16] = biological target: Melanin-concentrating hormone receptor 1 (Homo sapiens, UniProt Q99705); test: Late-stage fluorescence-based counterscreen for antagonists of the G-protein coupled receptor 7 (GPR7): cell-based dose response assay to identify antagonists of the melanin-concentrating hormone receptor 1 (MCHR1). [Related pubchem assays (depositor defined):AID1861, AID1880, AID1952, AID2148, AID2251, AID2257, AID485339]; type: functional;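 further: stimulated with 30 nM MCH peptide agonist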
[17] = biological target: T4, Neuropeptides B/W receptor type 1 (Homo sapiens, UniProt P48145); test: GPR7 antagonist potency, late-stage follow-up, cell-based, fluorescence, dose response (AID 463251); type: functional
T4 sequence (P48145 whole entry): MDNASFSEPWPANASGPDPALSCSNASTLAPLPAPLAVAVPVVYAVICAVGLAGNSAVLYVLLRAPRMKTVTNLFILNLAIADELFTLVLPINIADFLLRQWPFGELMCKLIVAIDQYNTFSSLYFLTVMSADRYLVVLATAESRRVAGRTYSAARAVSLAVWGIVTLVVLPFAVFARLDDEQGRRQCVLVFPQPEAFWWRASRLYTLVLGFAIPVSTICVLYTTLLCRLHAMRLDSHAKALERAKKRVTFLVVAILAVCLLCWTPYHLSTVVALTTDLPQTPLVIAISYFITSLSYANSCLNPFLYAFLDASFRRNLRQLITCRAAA

[18] = biological target: Signal transducer and activator of transcription 3 (Homo sapiens, UniProt P40763); test: STAT3 activators, late-stage profile, late-stage follow-up, cell-based, STAT1 reporter, BCL3 qPCR, cytotoxicity, panel member STAT3 Activation (AID 2049)
[19] = cytotoxicity in HEK-293T cells, dose response, cytotoxicity control for BCR NF-kB inhibitor project, luminescence, B-cell screen hits (AID 489021); type: functional, cell-based;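 further: HEK-293T cells carrying an NF-kB luciferase reporter; cells exposed to compound for about 14 hours before viability readout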
[20] = growth suppression of PTEN-null colon cells, dose response, cell-based, HCT116 PTEN knockout (AID 1047); type: functional;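 further: HCT116 colon tumor cells with PTEN knocked out; cells exposed to compound for 60 hours before readout; potency for loss of cell viability measured by luminescence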
[21] = growth suppression of beta-catenin-knockout colon cells, dose response, cell-based, HCT116, human colon tumor (AID 1045); type: functional;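 further: HCT116 colon tumor cells with beta catenin knocked out; cells exposed to compound for 60 hours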
[22] = biological target: Neurotensin receptor type 1 (Homo sapiens, UniProt P30989); type: functional;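 further: Image-based confirmatory dose-response assay measuring agonist activity at NTR1; NTR1-expressing U2OS osteosarcoma cells imaged for beta-arrestin GFP spot formation; agonist potency where compounds increase beta-arrestin recruitment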
X-box-binding protein 1 = X-box-binding protein 1 (Homo sapiens, UniProt P17861); type: functional, Cricetulus griseus;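 further: confirmatory dose-response counter-screen serving a CHOP assay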
Sequence of X-box-binding protein 1 (P17861 whole entry): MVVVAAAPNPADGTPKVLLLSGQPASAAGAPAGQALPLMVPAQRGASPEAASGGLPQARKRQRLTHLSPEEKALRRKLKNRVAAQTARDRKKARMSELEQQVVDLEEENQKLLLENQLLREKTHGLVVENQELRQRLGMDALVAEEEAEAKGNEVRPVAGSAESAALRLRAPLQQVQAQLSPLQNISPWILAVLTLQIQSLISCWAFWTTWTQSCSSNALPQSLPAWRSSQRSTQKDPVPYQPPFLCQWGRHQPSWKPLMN

Sequence of Neurotensin receptor type 1 (P30989 whole entry): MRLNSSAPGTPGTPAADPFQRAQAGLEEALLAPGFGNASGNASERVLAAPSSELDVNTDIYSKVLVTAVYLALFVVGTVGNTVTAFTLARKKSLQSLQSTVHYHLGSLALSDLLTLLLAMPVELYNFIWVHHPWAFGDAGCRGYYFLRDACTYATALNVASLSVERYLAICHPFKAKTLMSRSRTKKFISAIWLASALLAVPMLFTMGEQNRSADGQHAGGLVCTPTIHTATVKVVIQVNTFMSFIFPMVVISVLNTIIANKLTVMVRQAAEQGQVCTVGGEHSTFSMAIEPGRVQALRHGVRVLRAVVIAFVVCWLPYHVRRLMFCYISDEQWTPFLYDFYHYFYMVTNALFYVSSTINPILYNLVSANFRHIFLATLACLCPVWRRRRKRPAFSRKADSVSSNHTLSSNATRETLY
Sequence of Melanin-concentrating hormone receptor 1 (Q99705 whole entry): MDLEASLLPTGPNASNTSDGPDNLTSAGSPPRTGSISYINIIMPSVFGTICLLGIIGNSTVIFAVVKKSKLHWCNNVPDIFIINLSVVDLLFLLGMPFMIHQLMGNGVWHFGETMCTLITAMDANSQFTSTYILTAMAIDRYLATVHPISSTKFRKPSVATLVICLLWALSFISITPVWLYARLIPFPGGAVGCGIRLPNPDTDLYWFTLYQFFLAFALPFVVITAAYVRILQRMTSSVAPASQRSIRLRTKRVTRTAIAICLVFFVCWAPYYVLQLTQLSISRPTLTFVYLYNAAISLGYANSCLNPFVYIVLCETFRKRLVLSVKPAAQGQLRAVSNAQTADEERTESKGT
Sequence of Female germline-specific tumor suppressor gld-1 (Q17339 whole entry): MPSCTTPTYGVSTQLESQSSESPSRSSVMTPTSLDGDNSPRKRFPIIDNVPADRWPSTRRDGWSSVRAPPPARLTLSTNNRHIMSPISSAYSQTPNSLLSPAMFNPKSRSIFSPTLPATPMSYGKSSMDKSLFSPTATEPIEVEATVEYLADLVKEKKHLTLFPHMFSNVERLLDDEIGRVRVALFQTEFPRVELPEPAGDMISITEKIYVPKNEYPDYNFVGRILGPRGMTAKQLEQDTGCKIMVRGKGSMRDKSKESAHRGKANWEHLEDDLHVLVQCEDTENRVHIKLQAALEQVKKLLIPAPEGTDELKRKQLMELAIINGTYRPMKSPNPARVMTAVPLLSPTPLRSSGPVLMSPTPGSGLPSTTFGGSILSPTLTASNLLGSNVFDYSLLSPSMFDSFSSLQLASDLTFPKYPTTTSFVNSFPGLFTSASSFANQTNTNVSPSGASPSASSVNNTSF
Sequence of Wee1-like protein kinase (P30291 whole entry): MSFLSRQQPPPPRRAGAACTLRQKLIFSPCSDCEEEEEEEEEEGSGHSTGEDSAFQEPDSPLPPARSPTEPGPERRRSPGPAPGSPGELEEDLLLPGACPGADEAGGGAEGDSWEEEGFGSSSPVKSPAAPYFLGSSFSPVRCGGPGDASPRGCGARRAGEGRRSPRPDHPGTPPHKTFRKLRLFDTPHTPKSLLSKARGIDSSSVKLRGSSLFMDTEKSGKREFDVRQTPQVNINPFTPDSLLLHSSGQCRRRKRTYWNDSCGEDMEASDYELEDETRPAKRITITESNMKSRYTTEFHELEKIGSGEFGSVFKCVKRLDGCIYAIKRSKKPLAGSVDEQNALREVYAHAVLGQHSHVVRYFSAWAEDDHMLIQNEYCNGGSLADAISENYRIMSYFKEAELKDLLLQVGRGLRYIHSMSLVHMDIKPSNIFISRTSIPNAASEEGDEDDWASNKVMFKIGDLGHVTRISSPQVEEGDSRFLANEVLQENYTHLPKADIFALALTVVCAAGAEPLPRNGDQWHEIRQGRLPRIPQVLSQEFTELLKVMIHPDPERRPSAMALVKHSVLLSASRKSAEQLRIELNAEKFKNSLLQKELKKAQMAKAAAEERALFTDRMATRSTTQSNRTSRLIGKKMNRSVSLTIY
Sequence of Tyrosine-protein phosphatase non-receptor type 12 (Q05209 whole entry): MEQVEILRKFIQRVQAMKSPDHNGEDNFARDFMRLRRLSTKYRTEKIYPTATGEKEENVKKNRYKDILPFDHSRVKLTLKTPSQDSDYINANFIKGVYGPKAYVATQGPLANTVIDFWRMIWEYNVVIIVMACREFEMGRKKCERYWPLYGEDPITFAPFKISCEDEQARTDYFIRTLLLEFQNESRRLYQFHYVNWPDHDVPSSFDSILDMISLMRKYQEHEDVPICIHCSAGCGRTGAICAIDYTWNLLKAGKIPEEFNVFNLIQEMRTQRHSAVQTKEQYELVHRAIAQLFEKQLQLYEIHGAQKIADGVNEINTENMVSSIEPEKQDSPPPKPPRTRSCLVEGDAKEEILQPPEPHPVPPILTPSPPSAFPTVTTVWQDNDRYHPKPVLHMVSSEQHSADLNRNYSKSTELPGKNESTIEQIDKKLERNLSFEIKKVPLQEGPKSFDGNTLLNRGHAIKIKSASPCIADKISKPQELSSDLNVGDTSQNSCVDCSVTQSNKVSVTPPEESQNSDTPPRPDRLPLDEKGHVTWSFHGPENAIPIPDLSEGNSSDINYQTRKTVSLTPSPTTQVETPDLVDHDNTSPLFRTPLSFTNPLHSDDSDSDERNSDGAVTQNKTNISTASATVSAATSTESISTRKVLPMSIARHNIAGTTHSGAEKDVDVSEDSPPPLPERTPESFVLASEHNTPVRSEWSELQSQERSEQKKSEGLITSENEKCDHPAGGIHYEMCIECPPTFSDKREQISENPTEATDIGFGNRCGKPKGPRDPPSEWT
Sequence of Protein Rev (P04618 whole entry): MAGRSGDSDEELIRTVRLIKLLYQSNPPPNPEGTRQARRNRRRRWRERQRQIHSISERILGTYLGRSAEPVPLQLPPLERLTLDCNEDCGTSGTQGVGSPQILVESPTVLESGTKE
Sequence of G2/mitotic-specific cyclin-B1 (P14635 whole entry): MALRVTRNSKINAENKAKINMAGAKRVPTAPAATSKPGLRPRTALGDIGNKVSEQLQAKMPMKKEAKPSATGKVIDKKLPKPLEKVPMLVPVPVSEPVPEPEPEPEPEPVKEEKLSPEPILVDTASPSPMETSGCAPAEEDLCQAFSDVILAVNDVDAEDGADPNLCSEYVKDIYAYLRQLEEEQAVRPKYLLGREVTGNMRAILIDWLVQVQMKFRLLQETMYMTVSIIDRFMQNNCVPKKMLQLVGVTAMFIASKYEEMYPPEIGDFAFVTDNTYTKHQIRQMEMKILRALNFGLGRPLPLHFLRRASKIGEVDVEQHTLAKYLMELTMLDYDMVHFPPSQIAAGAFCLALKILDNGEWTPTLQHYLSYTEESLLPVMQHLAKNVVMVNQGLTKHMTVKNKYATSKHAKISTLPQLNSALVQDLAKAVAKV
Sequence of Glyceraldehyde-3-phosphate dehydrogenase (P04406 whole entry): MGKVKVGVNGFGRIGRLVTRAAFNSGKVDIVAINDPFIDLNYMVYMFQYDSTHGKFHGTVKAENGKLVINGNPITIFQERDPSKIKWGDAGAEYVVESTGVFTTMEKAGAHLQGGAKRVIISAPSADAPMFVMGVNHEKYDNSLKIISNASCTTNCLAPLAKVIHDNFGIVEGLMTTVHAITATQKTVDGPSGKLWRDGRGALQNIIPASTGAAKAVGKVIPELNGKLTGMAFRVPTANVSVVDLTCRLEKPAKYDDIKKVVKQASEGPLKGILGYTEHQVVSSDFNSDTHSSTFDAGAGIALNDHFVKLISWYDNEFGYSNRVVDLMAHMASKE
Sequence of Trypsin (P00761 whole entry): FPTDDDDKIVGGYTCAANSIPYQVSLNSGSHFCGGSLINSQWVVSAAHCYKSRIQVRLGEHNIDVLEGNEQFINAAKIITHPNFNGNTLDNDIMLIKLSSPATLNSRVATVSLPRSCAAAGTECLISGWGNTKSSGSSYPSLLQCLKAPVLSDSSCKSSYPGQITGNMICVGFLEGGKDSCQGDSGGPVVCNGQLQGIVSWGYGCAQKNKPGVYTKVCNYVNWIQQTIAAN
Sequence of Signal transducer and activator of transcription 3 (P40763 whole entry): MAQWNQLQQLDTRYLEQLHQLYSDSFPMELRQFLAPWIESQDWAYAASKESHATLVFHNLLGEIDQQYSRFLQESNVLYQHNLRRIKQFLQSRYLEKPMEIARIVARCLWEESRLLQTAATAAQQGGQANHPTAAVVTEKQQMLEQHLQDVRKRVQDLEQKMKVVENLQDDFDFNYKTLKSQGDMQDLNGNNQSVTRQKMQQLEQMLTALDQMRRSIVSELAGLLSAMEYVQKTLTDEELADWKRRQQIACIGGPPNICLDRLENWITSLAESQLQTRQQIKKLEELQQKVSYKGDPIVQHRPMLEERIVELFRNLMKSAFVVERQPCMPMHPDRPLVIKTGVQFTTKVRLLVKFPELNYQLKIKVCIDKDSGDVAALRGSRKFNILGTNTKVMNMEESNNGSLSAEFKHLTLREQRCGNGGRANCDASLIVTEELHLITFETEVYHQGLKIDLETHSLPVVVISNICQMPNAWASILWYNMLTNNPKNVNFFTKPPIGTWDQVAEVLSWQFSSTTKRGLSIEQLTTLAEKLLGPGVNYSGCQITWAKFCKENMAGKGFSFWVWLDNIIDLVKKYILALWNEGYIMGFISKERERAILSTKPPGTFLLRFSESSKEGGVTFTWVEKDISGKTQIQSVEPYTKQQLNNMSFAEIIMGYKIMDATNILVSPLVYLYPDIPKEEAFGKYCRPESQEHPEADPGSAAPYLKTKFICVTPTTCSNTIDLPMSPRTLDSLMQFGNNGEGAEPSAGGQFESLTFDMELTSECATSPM

O=C(O)c1ccccc1N=Nc1ccc(O)cc1
IC50 (Protein Rev): 22 µM (not active) | IC50 [1]: 8.4 µM (active) | EC50 (Insulin-degrading enzyme [2]): 26.9 µM (inactive) | EC50 (Insulin-degrading enzyme [3]): 22.3 µM (inactive) | IC50 (HEK293 [4]): > 89.2 µM (inactive) | EC50 (HEK293 [5]): 50.3 µM (inactive)

COC(=O)c1ccccc1NC(=O)CCCOc1cc(=O)n(C)c2ccccc12
EC50 (Wee1-like protein kinase): > 49.7 µM (inactive) | EC50 [6]: > 49.7 µM (inactive)

O=C(NCC1CC1)c1ccc(Nc2nc3cc(Br)ccc3[nH]2)cc1
CC50 [7]: 7.81 µM (active) | AC50 (Trypsin): 9.83 µM (active) | IC50 (cells [8]): 14.5 µM (inactive) | EC50 [9]: 14.6 µM (inactive) | IC50 [10]: 2.09 µM (active) | EC50 (cells [11]): > 29.9 µM (inactive)

COc1ccc(/C=C2\SC(=S)N(C(CC(=O)O)C(=O)O)C2=O)cc1 (stereo unspecified)
IC50 [12]: > 100 µM (not active) | IC50 [13]: > 100 µM (inactive) | IC50 [14]: > 100 µM (inactive) | IC50 [15]: > 100 µM (inactive)

Cc1ccc(CN2CCCCC2C(=O)N2CCN(c3ccc([N+](=O)[O-])cc3)CC2)cc1 (stereo unspecified)
IC50 [16]: 5.8 µM (active) | IC50 [17]: 9 µM (active)

COc1cccc(NC(=O)c2cc(C3CC3)on2)c1
EC50 [18]: > 5.57 µM (inactive)

CCN(CC)CCOC(=O)c1ccc(NC(=O)COc2cc(=O)n(CC)c3ccccc23)cc1
IC50 [19]: > 80 µM (inactive)

Cc1cc2c3c(c1)C(C)(c1ccccc1)CC(C)(C)N3C(=O)C21C(C#N)=C(N)OC2=C1C(=O)CC(C)(C)C2 (stereo unspecified)
EC50 [20]: 19.4 µM (active) | EC50 [21]: 20.4 µM (active) | EC50 [22]: 22 µM (inactive) | Absolute IC50 (XBP1) (X-box-binding protein 1): 10 µM

— ChEMBL document CHEMBL1201862, “PubChem BioAssay data set” (2004)
